Values quoted from earlier work, collected in patent publication US20060025476A1, “Use of methyl pyruvate for the purpose of reducing weight gain in mammals” (priority 2004, published 2006).
Read-outs that look alike come from different tables or passages of the source. Blank lines part the entries; values can stand above or below the molecule they belong to.

Tests used:
[1] = test system: fetal rat brown adipocyte primary cultures
[2] = test system: LXR
[3] = test system: porcine carotid artery strips
[4] = test system: UCP-1 mRNA expression; conditions: 4-5 h, basal or rosiglitazone-treated cells
[5] = biological target: T1, PPAR-alpha (Rattus norvegicus, UniProt P37230); design: from tissue; host or cells: rat gastrocnemius muscle, in vivo; conditions: gastrocnemius muscle, feeding
T1 sequence (P37230 1-468): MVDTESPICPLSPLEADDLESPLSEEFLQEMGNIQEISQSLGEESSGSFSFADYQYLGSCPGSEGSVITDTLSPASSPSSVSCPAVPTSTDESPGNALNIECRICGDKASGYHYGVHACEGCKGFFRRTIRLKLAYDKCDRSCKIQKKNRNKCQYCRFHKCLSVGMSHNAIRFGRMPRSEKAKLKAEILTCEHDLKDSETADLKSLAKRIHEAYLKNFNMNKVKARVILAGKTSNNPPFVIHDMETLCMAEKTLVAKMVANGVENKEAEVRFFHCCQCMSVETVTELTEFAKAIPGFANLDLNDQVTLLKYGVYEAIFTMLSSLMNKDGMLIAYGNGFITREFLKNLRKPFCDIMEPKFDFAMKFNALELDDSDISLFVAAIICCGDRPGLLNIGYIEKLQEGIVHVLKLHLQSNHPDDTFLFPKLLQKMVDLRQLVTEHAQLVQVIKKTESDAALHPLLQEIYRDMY

[6] = biological target: T1, PPAR-alpha; design: from tissue; conditions: control and high-fat-fed rats
[7] = test system: guinea-pig cerebral cortical synaptosomes
[8] = test system: isolated rat pancreatic islets
[9] = test system: pancreatic islets; conditions: NAD(P)H imaging with LipDH autofluorescence
[10] = test system: isolated beta-cell mitochondria; conditions: accumulation of ATP in medium, in combination with glutamate
[11] = test system: pancreatic beta-cells
[12] = test system: pancreatic beta-cells; remark: listed apart in the source
[13] = biological target: T2, K(ATP) channels (Homo sapiens, UniProt Q09428+Q14654)
T2 construct: endogenous in cells; host or cells: pancreatic beta-cells
T2 sequence (Q14654 whole entry): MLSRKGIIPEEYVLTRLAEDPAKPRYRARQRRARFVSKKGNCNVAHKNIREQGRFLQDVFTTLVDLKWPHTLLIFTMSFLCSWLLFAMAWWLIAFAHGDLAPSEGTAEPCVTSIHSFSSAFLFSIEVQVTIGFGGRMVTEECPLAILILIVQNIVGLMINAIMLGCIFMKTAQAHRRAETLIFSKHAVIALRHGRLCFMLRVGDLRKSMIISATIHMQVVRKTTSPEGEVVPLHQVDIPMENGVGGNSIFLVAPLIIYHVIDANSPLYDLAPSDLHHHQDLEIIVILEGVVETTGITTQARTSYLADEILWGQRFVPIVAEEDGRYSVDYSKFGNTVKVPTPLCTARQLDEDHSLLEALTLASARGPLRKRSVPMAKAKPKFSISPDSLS
T2 sequence (Q09428 whole entry): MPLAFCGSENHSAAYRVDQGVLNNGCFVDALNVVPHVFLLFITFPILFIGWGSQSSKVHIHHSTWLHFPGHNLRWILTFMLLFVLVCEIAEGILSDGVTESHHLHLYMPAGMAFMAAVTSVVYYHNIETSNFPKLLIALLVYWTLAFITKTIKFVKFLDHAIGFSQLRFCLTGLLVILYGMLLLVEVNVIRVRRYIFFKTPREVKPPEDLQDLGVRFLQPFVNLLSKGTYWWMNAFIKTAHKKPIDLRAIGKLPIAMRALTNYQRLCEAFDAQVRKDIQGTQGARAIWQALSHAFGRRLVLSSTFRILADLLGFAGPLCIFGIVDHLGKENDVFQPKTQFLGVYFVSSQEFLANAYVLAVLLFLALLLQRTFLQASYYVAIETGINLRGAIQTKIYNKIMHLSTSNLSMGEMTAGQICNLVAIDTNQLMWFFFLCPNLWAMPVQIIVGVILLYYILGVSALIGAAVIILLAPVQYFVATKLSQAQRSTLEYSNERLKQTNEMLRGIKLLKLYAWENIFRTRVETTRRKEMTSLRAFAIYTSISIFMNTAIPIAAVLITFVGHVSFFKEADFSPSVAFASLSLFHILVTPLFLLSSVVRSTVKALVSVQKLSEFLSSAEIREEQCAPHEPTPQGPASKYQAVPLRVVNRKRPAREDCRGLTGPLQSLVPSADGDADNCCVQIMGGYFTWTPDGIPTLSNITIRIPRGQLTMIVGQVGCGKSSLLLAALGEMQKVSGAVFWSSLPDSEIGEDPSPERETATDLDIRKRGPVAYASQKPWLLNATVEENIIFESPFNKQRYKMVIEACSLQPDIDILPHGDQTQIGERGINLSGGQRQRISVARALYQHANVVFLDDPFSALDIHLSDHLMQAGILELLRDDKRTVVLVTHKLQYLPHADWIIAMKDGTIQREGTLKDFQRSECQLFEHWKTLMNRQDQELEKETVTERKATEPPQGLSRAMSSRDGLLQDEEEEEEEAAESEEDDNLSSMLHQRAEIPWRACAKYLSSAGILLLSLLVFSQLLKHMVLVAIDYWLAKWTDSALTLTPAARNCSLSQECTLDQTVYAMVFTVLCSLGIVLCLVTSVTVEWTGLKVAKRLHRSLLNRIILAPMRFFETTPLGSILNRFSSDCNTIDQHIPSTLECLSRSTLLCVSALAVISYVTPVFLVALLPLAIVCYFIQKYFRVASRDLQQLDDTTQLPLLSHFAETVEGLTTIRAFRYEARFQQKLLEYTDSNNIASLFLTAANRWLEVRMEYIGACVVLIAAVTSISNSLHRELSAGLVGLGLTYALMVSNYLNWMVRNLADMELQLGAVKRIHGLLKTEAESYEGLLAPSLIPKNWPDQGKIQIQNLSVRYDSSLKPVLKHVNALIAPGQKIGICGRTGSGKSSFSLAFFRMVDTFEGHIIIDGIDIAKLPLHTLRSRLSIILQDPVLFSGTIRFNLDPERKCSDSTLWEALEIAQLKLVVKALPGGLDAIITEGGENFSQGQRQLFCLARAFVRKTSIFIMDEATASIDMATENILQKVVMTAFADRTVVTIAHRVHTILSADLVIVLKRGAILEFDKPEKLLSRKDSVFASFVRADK

[14] = test system: whole islets; conditions: 5 mM
[15] = test system: Jurkat T-lymphocyte mitochondria
[16] = test system: isolated rat pancreatic islets; conditions: compared with pyruvate
[17] = test system: porcine carotid arteries; conditions: added to amino-oxyacetic acid
[18] = test system: Na(+)-K(+)-ATPase; conditions: 10 microM
[19] = test system: PPARa/g; conditions: high-fat-fed rats

p44/p42 and p38 mitogen-activated protein kinase activation [1]: induce
SMILES: CC1=C(/C=C/C(C)=C\C=C\C(C)=C\C(=O)O)C(C)(C)CCC1 [9-cis-retinoic acid]

SMILES: CC(C)CC[C@@H](O)[C@@H](C)[C@H]1CC[C@H]2[C@@H]3CC=C4C[C@@H](O)CC[C@]4(C)[C@H]3CC[C@]12C [22 (R)-hydroxycholesterol]
suppressive effects of LXRs on PPARa-induced PPRE-luciferase activity [2]: dose dependently enhanced

SMILES: [Cl-].[K+] [KCl]
change in resting tone ([3]; 10 mM KCl, glucose-PSS): -0.8 ± 0.8 g | change in resting tone (increased contraction) ([3]; 10 mM KCl, lactate-PSS): 1.5 ± 0.7 g | change in resting tone ([3]; 10 mM KCl, pyruvate-PSS): -2.1 ± 0.8 g

SMILES: COc1cccc(-c2cc(=O)c3ccccc3o2)c1N [PD98059]
negative effect of TNF-alpha on UCP-1 mRNA expression [4]: reversed

suppressive effects of LXRs on PPARa-induced PPRE-luciferase activity [2]: dose dependently enhanced
SMILES: O=S(=O)(c1ccccc1)N(CC(F)(F)F)c1ccc(C(O)(C(F)(F)F)C(F)(F)F)cc1 [T0901317]

pyruvate dehydrogenase kinase activity, PDK4 protein and PDK4 mRNA [5]: large increases | hepatic PDK4 protein [6]: significantly increased
SMILES: Cc1cccc(Nc2cc(Cl)nc(SCC(=O)O)n2)c1C [WY14,643]

p44/p42 and p38 mitogen-activated protein kinase activation [1]: induce
SMILES: CC1=C(/C=C/C(C)=C/C=C/C(C)=C/C(=O)O)C(C)(C)CCC1 [all-trans-retinoic acid]

SMILES: NOCC(=O)O [amino-oxyacetic acid]
negative shift in the cytosolic NAD+/NADH redox potential [7]: 26 mV

SMILES: CC(O)C(=O)O (stereo not drawn) [lactate]
increase of O2 consumption ([3]; 10 mm in PSS): without effect

block of KATP [13]: block | single-channel currents ([13]; inside-out patches): blocked | K(ATP) current ([13]; standard whole-cell configuration): inhibited
SMILES: COC(=O)C(C)=O [methyl pyruvate]
insulin release ([8]; D-glucose 16.7 mM and/or methyl ester 20.0 mM): negative insulinotropic action | insulin release ([8]; D-glucose 2.8 to 8.3 mM, ester not exceeding 10.0 mM): positive insulinotropic action | NADH and NADPH response [9]: robust NADH and NADPH response | ATP production with glutamate [10]: higher than that induced by pyruvate/glutamate | increase in insulin secretion relative to that induced by glucose [11]: 6 fold | concentration of maximal effect on insulin secretion ([11]; absence of glucose): 5 mM | ATP production or ATP/ADP ratio [12]: did not influence | NAD(P)H autofluorescence [12]: slightly decreased | [Ca2+]i [12]: sustained rise | depolarization of beta-cell membrane potential ([12]; 5-20 mM): depolarized the beta-cell in a concentration-dependent manner | cytosolic free Ca(2+) concentration ([12]; after an initial decrease): increased | electrical activity ([12]; presence of 0.5 mM glucose): elicited electrical activity | ATP/ADP ratio in whole islets [14]: no effect | cation current across the inner membrane of mitochondria [15]: directly inhibited | efficiency in intramitochondrial metabolism (amino acid conversion, inhibition of glucose utilization, 14CO2 output) [16]: more efficient than pyruvate | mitochondrial alkalinization [16]: more marked mitochondrial alkalinization than pyruvate

SMILES: CCCCCCCC(=O)O [octanoate]
adverse energetic effects of malate-aspartate shuttle inhibition [17]: normalized

SMILES: C[C@@H]1O[C@@H](O[C@H]2C[C@@H](O)[C@]3(CO)[C@H]4[C@H](O)C[C@]5(C)[C@@H](C6=CC(=O)OC6)CC[C@]5(O)[C@@H]4CC[C@]3(O)C2)[C@H](O)[C@H](O)[C@H]1O [ouabain]
glycolysis and lactate production [18]: decreased

SMILES: CCO[C@@H](Cc1ccc(OCCc2ccc(OS(C)(=O)=O)cc2)cc1)C(=O)O [tesaglitazar]
diglyceride and long chain acyl coenzyme A in skeletal muscle [19]: decreased | hepatic triglyceride accumulation [19]: reduced | glucose infusion rate during hyperinsulinemic-euglycemic clamp ([19]; 7 d): increase
